Target: T1, CHIP (Homo sapiens, UniProt Q9UNE7)
T1 construct: gene STUB1; commercial human recombinant CHIP (OriGene)
T1 sequence (Q9UNE7 1-303): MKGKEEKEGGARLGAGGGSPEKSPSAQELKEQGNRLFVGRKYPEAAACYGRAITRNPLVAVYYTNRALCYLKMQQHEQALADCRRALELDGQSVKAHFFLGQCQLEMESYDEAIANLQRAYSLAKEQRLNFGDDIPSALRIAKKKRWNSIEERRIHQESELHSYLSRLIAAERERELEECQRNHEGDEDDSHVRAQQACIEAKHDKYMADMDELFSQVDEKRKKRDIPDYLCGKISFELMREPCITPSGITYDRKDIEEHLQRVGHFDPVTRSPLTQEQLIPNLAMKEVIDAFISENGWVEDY
Experiment: microscale thermophoresis, Monolith NT.[…], single-site fit
Assay type: binding

`C=CC(=O)Nc1ccc(CN2C(=O)N(c3cc(OC)cc(OC)c3)Cc3cnc(Nc4ccc(N5CCN(C)CC5)cc4)nc32)cc1` [FIIN-2] was tested, and the Kd was 1830 nM.

From PMC12313710, “Targeting the BAG2/CHIP axis promotes gastric cancer apoptosis by blocking apoptosome assembly” (Frontiers in Immunology, 2025)
